Results published in US20200179392A1, “Idelalisib for Treating Proliferative Vitreoretinopathy and Abnormal Intraocular Neovascularization” (priority 2016, published 2020).

Test system: PDGFRβ/PI3Kδ/Akt
Test: Western blot of vitreous-induced Akt activation restored by mutant PDGFRβ (βΔx) in PDGFRβ-silent RPEM cells
Type: cell-based, human
Details: PDGFRβ-silent RPEM cells expressing βΔx; NAC 10 mM, SU6656 1 μM
Description: 2B. Serum-deprived RPEM cells as defined were treated with RV or PDGF-B for 30 minutes and their lysates were analyzed with indicated antibodies. This is a representative of three independent experiments. βΔx: a truncated PDGFRβ without the PDGF-binding domain. NAC: N-acetyl-cysteine (10 mM), a scavenger of reactive oxygen species (ROS), SU: SU6656 (1 μM), a specific inhibitor of Src family kinases (SFKs).
To make the retrovirus, the pLXSHD-PDGFRβΔx construct was transfected into 293GPG cells with reagent (Lipofectamine 2000; Invitrogen). Virus containing medium was collected for 5 days and then was concentrated (25,000g, 90 minutes, 4° C.). RPEM cells deficient for PDGFRβ were infected by incubation with the concentrated retrovirus in DMEM supplemented with 10% FBS and 8 μg/mL polybrene (hexadimethrine bromide; Sigma) for 24 hours. Successfully infected cells were selected in histidine-free DMEM supplemented with 2 mM L-histidinol dihydrochoride (Sigma, St. Louis, Mo.). Resultant cell lines were termed RPEMPAx; the level of the truncated PDGFRPAx was determined by Western blot analysis with an antiPDGFRβ antibody that recognizes the receptor's intracellular domain.
Cells grown to 90% confluence in wells of 24-well plates were serum starved for 24 hours, and then treated with appropriated agents. […] Signal intensity was determined by densitometry using NIH imageJ software^24, 44, 50.

SMILES | effect on restoration of vitreous-induced activation of Akt by mutant PDGFRβ
CC(=O)N[C@@H](CS)C(=O)O [N-acetyl-cysteine] | prevented
CN(C)S(=O)(=O)c1ccc2c(c1)/C(=C/c1cc3c([nH]1)CCCC3)C(=O)N2 [SU6656] | prevented
